Experimental data as given in ChEMBL document CHEMBL4507276 (2021).

Experiments:
Settings in all cases: Compound concentration 1000.0 nM
[1] = biological target: RAC-alpha serine/threonine-protein kinase (Homo sapiens) (UniProt P31749)
[2] = biological target: 5'-AMP-activated protein kinase catalytic subunit alpha-1 (Homo sapiens) (UniProt Q13131)
[3] = biological target: Serine/threonine-protein kinase B-raf (Homo sapiens) (UniProt P15056)
[4] = biological target: Ephrin type-A receptor 5 (Homo sapiens) (UniProt P54756)
[5] = biological target: T1, Ephrin type-B receptor 1 (Homo sapiens) (UniProt P54762)
T1 sequence (whole entry): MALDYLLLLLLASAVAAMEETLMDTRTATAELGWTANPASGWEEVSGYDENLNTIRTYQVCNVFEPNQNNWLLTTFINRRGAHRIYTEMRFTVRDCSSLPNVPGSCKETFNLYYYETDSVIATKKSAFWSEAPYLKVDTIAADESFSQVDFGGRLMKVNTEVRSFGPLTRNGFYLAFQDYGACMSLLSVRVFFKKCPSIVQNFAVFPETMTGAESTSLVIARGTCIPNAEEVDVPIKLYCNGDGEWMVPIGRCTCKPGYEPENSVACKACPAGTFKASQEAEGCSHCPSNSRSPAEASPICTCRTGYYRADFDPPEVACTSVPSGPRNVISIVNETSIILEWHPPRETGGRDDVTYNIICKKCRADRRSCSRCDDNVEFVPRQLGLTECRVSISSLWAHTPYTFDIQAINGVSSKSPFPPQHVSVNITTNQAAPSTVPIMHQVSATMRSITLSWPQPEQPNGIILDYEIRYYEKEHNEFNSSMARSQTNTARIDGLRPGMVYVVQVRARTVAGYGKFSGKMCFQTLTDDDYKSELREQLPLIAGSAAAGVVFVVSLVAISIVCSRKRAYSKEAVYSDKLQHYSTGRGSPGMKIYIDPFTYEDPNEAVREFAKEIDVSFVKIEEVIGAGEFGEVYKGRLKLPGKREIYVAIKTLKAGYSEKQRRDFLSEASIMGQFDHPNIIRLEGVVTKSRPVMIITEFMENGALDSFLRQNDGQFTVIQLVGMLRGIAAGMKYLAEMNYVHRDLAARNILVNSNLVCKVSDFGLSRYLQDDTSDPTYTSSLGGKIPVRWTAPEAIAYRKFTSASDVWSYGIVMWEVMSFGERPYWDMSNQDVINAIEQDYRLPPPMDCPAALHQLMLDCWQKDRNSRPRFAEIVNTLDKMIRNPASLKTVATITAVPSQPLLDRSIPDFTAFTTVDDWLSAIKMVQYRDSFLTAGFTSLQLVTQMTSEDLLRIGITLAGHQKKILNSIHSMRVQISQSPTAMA

[6] = biological target: T2, G protein-coupled receptor kinase 3 (Homo sapiens) (UniProt P35626)
T2 sequence (whole entry): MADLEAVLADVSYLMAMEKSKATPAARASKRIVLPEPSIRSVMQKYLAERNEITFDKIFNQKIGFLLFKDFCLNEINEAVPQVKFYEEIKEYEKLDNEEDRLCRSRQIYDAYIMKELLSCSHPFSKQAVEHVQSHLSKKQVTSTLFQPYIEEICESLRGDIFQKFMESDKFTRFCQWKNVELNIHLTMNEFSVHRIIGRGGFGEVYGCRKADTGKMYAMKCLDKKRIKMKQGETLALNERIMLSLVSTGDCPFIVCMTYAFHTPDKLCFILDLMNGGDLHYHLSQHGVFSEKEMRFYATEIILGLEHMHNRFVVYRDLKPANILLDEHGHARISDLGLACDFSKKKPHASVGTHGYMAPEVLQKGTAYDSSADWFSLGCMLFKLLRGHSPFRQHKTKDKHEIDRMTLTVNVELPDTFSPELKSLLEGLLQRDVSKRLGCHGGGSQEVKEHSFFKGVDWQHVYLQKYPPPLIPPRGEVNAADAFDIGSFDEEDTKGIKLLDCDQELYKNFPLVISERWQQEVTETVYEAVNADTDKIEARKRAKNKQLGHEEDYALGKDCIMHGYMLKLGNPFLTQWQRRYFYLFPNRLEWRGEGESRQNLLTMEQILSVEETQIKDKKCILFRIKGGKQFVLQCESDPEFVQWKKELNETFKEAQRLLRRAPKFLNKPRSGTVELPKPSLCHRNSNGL

[7] = biological target: Homeodomain-interacting protein kinase 1 (Homo sapiens) (UniProt Q86Z02)
[8] = biological target: Serine/threonine-protein kinase LATS1 (Homo sapiens) (UniProt O95835)
[9] = biological target: Tyrosine-protein kinase Lck (Homo sapiens) (UniProt P06239)
[10] = biological target: Myosin light chain kinase 2, skeletal/cardiac muscle (Homo sapiens) (UniProt Q9H1R3)
[11] = biological target: Serine/threonine-protein kinase PknB (Mycobacterium tuberculosis) (UniProt P9WI81)
[12] = biological target: Proto-oncogene tyrosine-protein kinase ROS (Homo sapiens) (UniProt P08922)
[13] = biological target: Ribosomal protein S6 kinase alpha-4 (Homo sapiens) (UniProt O75676)
[14] = biological target: Serine/threonine-protein kinase TAO1 (Homo sapiens) (UniProt Q7L7X3)
[15] = biological target: T3, TGF-beta receptor type-1 (Homo sapiens) (UniProt P36897)
T3 sequence (whole entry): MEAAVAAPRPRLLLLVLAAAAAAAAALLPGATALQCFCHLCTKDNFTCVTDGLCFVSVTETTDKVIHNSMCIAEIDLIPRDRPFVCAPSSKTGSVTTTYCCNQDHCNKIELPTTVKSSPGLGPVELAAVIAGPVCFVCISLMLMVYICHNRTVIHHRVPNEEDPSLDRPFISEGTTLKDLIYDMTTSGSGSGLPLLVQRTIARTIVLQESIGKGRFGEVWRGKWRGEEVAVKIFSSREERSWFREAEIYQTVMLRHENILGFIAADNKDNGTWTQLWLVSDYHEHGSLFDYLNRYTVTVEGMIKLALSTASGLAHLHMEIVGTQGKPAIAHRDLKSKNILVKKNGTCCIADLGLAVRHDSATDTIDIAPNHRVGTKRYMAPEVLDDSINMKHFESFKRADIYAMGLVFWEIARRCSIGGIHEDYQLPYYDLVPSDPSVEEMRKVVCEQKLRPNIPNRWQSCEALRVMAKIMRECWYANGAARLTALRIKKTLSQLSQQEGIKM

Chain of RAC-alpha serine/threonine-protein kinase (Homo sapiens) (P31749 whole entry): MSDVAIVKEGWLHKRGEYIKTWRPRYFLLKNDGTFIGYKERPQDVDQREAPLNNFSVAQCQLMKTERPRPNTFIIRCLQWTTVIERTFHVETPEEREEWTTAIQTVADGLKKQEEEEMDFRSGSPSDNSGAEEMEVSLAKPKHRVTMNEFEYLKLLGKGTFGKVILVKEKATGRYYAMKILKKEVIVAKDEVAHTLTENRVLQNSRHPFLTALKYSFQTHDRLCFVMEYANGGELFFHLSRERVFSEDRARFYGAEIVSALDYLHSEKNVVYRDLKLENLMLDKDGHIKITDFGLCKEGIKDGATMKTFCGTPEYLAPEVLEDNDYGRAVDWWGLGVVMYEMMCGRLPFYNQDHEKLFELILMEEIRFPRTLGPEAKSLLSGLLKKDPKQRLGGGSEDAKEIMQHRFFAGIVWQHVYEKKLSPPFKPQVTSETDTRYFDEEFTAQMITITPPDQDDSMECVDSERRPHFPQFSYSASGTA
Chain of Proto-oncogene tyrosine-protein kinase ROS (Homo sapiens) (P08922 whole entry): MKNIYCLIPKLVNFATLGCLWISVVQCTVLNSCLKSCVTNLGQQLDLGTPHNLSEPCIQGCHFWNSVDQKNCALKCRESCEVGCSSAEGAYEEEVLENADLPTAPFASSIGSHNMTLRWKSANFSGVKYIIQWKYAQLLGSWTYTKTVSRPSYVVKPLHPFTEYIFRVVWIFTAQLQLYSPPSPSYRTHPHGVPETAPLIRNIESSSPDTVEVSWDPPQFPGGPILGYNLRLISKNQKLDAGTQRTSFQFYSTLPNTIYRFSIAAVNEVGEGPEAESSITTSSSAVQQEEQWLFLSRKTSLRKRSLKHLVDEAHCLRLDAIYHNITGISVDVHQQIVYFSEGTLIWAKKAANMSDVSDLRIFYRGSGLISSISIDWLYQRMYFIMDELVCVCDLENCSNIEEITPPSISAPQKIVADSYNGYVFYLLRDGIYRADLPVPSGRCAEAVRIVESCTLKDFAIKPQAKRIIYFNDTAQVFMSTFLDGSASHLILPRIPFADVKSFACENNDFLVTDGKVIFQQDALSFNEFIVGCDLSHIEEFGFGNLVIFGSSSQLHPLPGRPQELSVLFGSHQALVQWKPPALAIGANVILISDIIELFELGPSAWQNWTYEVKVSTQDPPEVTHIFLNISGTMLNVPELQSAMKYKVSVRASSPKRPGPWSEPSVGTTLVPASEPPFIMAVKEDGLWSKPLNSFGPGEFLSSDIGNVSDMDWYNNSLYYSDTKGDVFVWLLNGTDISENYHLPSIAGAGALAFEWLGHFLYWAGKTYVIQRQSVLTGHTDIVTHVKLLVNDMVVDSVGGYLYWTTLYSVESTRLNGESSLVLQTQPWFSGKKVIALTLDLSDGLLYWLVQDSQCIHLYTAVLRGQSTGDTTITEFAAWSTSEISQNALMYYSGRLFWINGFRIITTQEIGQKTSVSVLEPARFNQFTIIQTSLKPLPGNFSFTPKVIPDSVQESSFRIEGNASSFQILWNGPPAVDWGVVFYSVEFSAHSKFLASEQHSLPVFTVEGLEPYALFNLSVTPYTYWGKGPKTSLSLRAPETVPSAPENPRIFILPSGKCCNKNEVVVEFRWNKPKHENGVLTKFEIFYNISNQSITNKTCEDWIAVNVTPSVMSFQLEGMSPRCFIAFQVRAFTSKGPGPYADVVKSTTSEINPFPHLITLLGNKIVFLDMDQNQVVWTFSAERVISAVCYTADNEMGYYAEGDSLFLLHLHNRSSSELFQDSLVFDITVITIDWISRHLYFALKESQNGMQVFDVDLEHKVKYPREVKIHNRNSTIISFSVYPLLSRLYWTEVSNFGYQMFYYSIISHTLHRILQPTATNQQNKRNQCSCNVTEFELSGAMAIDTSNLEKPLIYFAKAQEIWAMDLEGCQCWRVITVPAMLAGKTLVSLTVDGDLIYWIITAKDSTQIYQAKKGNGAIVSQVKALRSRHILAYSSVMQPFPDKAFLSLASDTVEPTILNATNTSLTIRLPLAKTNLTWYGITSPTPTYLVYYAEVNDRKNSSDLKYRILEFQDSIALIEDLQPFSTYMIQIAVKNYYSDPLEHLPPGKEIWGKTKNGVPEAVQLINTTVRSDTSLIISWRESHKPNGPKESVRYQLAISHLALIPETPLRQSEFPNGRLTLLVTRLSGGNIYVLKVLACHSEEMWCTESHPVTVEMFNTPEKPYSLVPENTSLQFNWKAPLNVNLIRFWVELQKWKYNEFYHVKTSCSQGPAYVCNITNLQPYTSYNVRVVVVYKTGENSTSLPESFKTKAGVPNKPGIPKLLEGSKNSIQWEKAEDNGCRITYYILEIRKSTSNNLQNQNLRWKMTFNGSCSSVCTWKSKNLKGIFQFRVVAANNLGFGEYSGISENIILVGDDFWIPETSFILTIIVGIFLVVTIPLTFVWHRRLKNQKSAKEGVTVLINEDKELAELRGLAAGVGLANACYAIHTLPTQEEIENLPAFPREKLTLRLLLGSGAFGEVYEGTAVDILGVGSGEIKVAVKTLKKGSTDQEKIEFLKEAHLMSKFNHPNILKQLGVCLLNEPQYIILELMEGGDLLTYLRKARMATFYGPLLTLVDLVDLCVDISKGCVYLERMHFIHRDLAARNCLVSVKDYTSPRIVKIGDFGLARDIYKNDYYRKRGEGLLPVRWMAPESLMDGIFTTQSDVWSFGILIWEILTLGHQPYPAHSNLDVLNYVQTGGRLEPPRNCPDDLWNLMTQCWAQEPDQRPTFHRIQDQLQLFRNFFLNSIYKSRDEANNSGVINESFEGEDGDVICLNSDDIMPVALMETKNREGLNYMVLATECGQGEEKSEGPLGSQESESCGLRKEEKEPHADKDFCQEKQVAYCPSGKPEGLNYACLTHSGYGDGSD
Chain of Homeodomain-interacting protein kinase 1 (Homo sapiens) (Q86Z02 whole entry, looked up): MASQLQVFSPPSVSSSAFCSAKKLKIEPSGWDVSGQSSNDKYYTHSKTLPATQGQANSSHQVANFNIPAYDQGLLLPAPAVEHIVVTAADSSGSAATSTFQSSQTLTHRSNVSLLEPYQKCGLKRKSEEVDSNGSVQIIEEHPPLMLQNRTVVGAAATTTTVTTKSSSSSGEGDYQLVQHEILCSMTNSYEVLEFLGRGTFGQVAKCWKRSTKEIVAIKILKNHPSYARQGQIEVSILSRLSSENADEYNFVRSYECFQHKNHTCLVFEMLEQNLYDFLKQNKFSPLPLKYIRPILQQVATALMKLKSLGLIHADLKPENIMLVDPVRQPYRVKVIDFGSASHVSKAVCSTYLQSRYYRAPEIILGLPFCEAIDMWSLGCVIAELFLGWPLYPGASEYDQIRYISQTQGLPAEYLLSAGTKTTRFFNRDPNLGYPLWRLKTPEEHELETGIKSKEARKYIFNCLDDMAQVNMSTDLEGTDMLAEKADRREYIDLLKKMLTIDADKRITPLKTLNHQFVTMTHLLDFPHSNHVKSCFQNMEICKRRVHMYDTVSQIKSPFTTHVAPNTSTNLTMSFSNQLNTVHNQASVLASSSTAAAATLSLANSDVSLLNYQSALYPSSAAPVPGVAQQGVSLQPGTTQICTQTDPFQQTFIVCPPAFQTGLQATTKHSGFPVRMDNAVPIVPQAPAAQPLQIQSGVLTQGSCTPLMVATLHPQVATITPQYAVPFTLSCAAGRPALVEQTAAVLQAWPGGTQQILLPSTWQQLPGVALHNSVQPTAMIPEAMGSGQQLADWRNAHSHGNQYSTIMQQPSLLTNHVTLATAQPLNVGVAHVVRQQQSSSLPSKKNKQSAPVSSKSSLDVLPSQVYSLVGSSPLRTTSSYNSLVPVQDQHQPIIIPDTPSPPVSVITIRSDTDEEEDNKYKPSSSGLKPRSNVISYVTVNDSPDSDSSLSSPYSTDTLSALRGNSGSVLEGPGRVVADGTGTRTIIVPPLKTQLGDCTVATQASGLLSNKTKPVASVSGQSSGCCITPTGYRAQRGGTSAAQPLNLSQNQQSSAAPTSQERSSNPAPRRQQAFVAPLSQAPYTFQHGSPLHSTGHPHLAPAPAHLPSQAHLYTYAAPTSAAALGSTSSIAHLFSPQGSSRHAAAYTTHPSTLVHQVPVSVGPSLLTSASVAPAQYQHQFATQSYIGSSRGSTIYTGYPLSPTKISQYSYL
Chain of Ephrin type-A receptor 5 (Homo sapiens) (P54756 whole entry): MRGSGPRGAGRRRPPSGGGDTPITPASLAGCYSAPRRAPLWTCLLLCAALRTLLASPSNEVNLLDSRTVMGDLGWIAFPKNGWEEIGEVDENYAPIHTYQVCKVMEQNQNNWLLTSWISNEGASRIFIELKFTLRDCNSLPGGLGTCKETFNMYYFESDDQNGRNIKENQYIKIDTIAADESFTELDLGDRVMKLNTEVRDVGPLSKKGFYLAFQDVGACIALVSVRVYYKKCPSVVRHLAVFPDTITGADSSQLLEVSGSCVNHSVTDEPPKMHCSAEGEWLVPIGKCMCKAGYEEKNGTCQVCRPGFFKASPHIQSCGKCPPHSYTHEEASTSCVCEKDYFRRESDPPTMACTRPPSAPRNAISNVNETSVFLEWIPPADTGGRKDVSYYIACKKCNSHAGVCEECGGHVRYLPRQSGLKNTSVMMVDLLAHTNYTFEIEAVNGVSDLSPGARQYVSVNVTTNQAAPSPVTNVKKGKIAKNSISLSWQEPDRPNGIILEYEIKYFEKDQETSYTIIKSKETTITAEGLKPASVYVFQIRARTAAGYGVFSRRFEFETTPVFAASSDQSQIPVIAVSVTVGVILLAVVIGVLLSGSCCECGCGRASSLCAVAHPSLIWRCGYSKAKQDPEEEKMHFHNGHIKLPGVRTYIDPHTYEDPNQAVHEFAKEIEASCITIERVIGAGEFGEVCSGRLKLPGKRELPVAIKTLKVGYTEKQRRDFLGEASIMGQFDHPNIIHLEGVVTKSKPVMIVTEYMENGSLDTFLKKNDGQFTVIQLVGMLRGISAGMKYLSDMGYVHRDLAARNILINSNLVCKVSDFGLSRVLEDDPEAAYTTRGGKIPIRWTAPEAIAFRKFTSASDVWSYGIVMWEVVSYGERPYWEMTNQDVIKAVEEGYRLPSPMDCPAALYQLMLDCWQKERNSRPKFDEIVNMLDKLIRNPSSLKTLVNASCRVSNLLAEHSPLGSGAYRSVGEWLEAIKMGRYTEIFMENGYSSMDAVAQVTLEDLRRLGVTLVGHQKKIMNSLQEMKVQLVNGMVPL

SMILES | residual activity [1] [%] | residual activity [2] [%] | residual activity [3] [%] | residual activity [4] [%] | residual activity [5] [%] | residual activity [6] [%] | residual activity [7] [%] | residual activity [8] [%] | residual activity [9] [%] | residual activity [10] [%] | residual activity [11] [%] | residual activity [12] [%] | residual activity [13] [%] | residual activity [14] [%] | residual activity [15] [%]
CN(C)C(=O)Cn1cc(-c2nc(C3(c4ccc(-c5cnc(N)nc5)cc4)CC3)no2)cn1 [BI 0153] | 97 | 98 | 88 | 41 | 100 | 69 | 63 | 100 | 83 | 90 | 85 | 87 | 91 | 86 | 97
CN(C)C(=O)Cn1cc(-c2nc([C@@](C)(c3ccc(-c4cnc(N)nc4)cc3)C3CC3)no2)cn1 [BI 665915] | 94 | 95 | 82 | 100 | 100 | 86 | 96 | 93 | 86 | 100 | 100 | 88 | 100 | 75 | 100
